# Reference: patent publication US20250304985A1, “Genetically Engineered Plants for Increased Production of Vindoline” (Northeastern University, priority 2022, published 2025)
# Legend:
# Type in all cases: in vivo, Catharanthus roseus
# C. roseus seedlings = experiment: Paclobutrazol treatment of etiolated seedlings: seedling height; conditions: 1 μM PAC, dark-grown seedlings, 4 days, vs DMSO mock
# Experimental: (§1) Because PAC might disrupt germination, seedlings were first germinated normally without any treatment by incubating them in the dark for 5 days at 27° C. The germinated seeds were then transferred to either media containing 1 μM PAC or media containing an equal volume of DMSO as a mock treatment. These seedlings were kept in the dark for 4 more days before being harvested for gene expression analysis.
# Seedlings treated with PAC were photographed and lengths were measured with ImageJ. Statistical significance for all phenotype measurements was analyzed with a two-tailed unpaired T-test.
# C. roseus var. Little Bright Eye seeds (NESeeds, 0.8 g) were sterilized by submersion in 4% Plant Preservative Mixture (PPM) for 18 hours in the dark. The PPM was then decanted, and the seeds were spread on full-strength Gamborg's media (3.1 g/L Gamborg's basal salts, 1× Gamborg's vitamins, and 6% micropropagation agar type 1, Phytotechnology Laboratory) inside a sterile Magenta™ Plant Culture Box (Sigma) for germination. […] Seedlings were maintained in the dark at 27° C. for 4 days, and then were harvested by placing 3 whole seedlings in a 2 mL screw cap tube containing ten 3 mm glass beads for each biological replicate, flash-freezing in liquid nitrogen, and storing at −80° C. until ready for RNA extraction and qPCR analysis.
# [1] = test system: vindoline pathway gene expression; experiment: Paclobutrazol treatment of etiolated seedlings: vindoline pathway gene expression by qPCR; conditions: 1 μM PAC, dark-grown seedlings, 4 days, vs DMSO mock
# Experimental: as §1
# Gene expression levels were monitored using quantitative real-time PCR (qRT-PCR) with primers listed in Table 1. mRNA was extracted from liquid nitrogen flash-frozen leaf tissue or seedlings stored at −80° C. While still frozen, tissue was crushed by shaking in a Mini-BeadBeater-16 (Biospec) for 15 seconds with ten 3 mm glass beads (Fisher). Afterwards, RNA was extracted with RNAzol-RT (Molecular Research Center) and the Direct-zol RNA Miniprep Plus Kit (Zymo Research) with on-column DNAse treatment to remove genomic DNA. RNA integrity was assessed using agarose gel electrophoresis, and concentration and purity were quantified with a NanoDrop (ND-1000 Spectrophotometer; ThermoScientific). cDNA was synthesized using either the SuperScript II First-Strand Synthesis System (Invitrogen) or the LunaScript RT SuperMix Kit (New England Biolabs) with up to 2.5 μg of RNA, according to manufacturer's instructions. cDNA was diluted 1:4, and 1 μL was used in a 10 μL reaction with SYBR Green ROX qPCR Master Mix (Qiagen or ABClonal) and 300 nM primers on the MX3000P qPCR instrument (Agilent) using the thermocycler protocol previously described with an extension time of 30 seconds. Ct values for each biological replicate were calculated as the average of two technical replicates. Transcript levels were normalized to the housekeeping gene, SAND [76], and fold changes relative to the negative control condition were calculated according to the […]. Amplification efficiency for each primer set was confirmed using Ct values over a range of cDNA dilutions and was 100%±10% for each gene monitored. Specificity of the primers were confirmed by gel electrophoresis and sequencing. SAND Ct values in no reverse-transcriptase controls were confirmed to be at least 5 Ct values above the respective experimental sample, indicating minimal genomic DNA contamination.
# C. roseus var. Little Bright Eye seeds (NESeeds, 0.8 g) were sterilized by submersion in 4% Plant Preservative Mixture (PPM) for 18 hours in the dark. The PPM was then decanted, and the seeds were spread on full-strength Gamborg's media (3.1 g/L Gamborg's basal salts, 1× Gamborg's vitamins, and 6% micropropagation agar type 1, Phytotechnology Laboratory) inside a sterile Magenta™ Plant Culture Box (Sigma) for germination. Seeds were germinated in the dark at 27° C. for 5 days until the radicle of the seedling had just emerged. A 100 mM stock solution of paclobutrazol (PAC, PhytoTechnology Laboratories) was prepared with DMSO as the solvent, filter-sterilized, and stored at −20° C. until use. A final concentration of 1 μM PAC or an equivalent amount of DMSO (mock) was added to Gamborg's media after autoclaving. After germination, seedlings were sterilely transferred to a new Magenta™ Box containing Gamborg's media containing 1 μM PAC or DMSO. Seedlings were maintained in the dark at 27° C. for 4 days, and then were harvested by placing 3 whole seedlings in a 2 mL screw cap tube containing ten 3 mm glass beads for each biological replicate, flash-freezing in liquid nitrogen, and storing at −80° C. until ready for RNA extraction and qPCR analysis.
# CrLHCB2.2 = experiment: Paclobutrazol treatment of etiolated seedlings: CrLHCB2.2 expression by qPCR (positive control); conditions: 1 μM PAC, dark-grown seedlings, 4 days, vs DMSO mock; normalized to SAND
# Experimental: as §1
# This is consistent with GA's positive role in growth and served as a good indicator that the PAC was having an effect on the seedlings. As a positive control, expression of CrLHCB2.2 was measured; CrLHCB2.2 is a homologue of the light harvesting complex subunit B 2.2, which was previously shown to be activated by PAC treatment of dark-grown seedlings in A. thaliana.
# Gene expression levels were monitored using quantitative real-time PCR (qRT-PCR) with primers listed in Table 1. mRNA was extracted from liquid nitrogen flash-frozen leaf tissue or seedlings stored at −80° C. […] Ct values for each biological replicate were calculated as the average of two technical replicates. Transcript levels were normalized to the housekeeping gene, SAND [76], and fold changes relative to the negative control condition were calculated according to the […]. Amplification efficiency for each primer set was confirmed using Ct values over a range of cDNA dilutions and was 100%±10% for each gene monitored. […]
# [2] = test system: CrDELLA1 and CrDELLA2 transcript levels; experiment: Paclobutrazol treatment of etiolated seedlings: DELLA transcript levels by qPCR; conditions: 1 μM PAC, dark-grown seedlings, 4 days, vs DMSO mock
# Experimental: as §1
# Gene expression levels were monitored using quantitative real-time PCR (qRT-PCR) with primers listed in Table 1. mRNA was extracted from liquid nitrogen flash-frozen leaf tissue or seedlings stored at −80° C. […] RNA integrity was assessed using agarose gel electrophoresis, and concentration and purity were quantified with a NanoDrop (ND-1000 Spectrophotometer; ThermoScientific). cDNA was synthesized using either the SuperScript II First-Strand Synthesis System (Invitrogen) or the LunaScript RT SuperMix Kit (New England Biolabs) with up to 2.5 μg of RNA, according to manufacturer's instructions. cDNA was diluted 1:4, and 1 μL was used in a 10 μL reaction with SYBR Green ROX qPCR Master Mix (Qiagen or ABClonal) and 300 nM primers on the MX3000P qPCR instrument (Agilent) using the thermocycler protocol previously described with an extension time of 30 seconds. Ct values for each biological replicate were calculated as the average of two technical replicates. […]
smiles,measurement,setting,value
"CC(C)(C)[C@@H](O)[C@@H](Cc1ccc(Cl)cc1)n1cncn1 (racemic) [PAC, paclobutrazol]",seedling height,C. roseus seedlings,significant decrease
same,D4H gene expression,[1],significant decrease
same,T16H2 gene expression,[1],no effect
same,activation of DAT gene expression,[1]; not statistically significant,approximately 50%
same,activation of NMT gene expression,[1]; not statistically significant,approximately 50%
same,activation of T3O gene expression,[1]; not statistically significant,approximately 50%
same,activation of T3R gene expression,[1]; not statistically significant,approximately 50%
same,activation of 16OMT gene expression,[1]; statistically significant,approximately 50%
same,activation of CrLHCB2.2 expression,CrLHCB2.2,> 2 fold
same,CrDELLA1 expression,[2],significantly decreased expression
same,CrDELLA2 expression,[2],significantly decreased expression
